In patent US12312359B2 (Vitae Pharmaceuticals, LLC, priority 2016, dated 2025):

Tests used:
[1] = biological target: T1, biotinylated wild-type menin and MLL-AF9 fusion protein (menin/MLL binding) (Homo sapiens, UniProt O00255); test: Assay 1: menin/MLL binding AlphaLISA assay, wild-type menin; conditions: Table 30; column head does not say wild-type or mutated menin
T1 construct: made in house; host or cells: menin: E. coli; MLL-AF9-FLAG: HEK293 cells, used as cleared lysate
T1 sequence (O00255 1-610): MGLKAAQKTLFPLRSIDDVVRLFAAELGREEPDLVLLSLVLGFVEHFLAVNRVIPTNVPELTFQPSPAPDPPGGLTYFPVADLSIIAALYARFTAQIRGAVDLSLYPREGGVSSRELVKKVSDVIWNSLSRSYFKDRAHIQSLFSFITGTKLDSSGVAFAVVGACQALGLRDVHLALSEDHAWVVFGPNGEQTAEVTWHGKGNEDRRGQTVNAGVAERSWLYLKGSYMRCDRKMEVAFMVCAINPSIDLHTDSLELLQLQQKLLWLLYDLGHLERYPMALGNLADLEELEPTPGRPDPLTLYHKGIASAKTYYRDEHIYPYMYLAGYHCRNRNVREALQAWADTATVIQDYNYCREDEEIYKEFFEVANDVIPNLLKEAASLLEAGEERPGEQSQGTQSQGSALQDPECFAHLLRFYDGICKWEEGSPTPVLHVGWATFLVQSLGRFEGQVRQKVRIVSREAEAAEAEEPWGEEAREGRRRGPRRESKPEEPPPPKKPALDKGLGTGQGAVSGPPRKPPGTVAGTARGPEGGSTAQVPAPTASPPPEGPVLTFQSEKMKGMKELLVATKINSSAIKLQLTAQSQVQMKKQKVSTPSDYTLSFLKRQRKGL
Method in brief: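 Compound was preincubated 30 min at room temperature with biotinylated menin (5 nM) and MLL-AF9-FLAG lysate from HEK293 cells, pH 7.4 buffer with 5% DMSO and DTT. Bead-based Alpha signal after 60 min with streptavidin donor and anti-FLAG acceptor beads; four-parameter logistic fit gave IC50.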

[2] = test system: human acute monocytic leukemia cell line MV-4-11; test: Assay 2: cell proliferation assay (ATP quantitation, CellTiter-Glo), MV-4-11; assay type: cell-based; conditions: MV-4-11 cells
Method in brief: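 Read-out is CellTiter-Glo luminescence quantifying ATP. Compound exposure lasted 72 h at 37° C., 5% CO2, with 1.67×10^4 MV-4-11 cells per well in 10% FBS medium, alongside HL-60 toxicity-control cells.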

IC50 [1] [nM] | EC50 ([2]; Homo sapiens, MV4-11, 72 h) [nM] | EC50 ([2]; 72 h) [nM] | Compound
< 100 | < 100 |  | CC(C)C(=O)N(C)c1cc(F)ccc1Oc1cncnc1N1CC2(CN(CC[C@H]3CC[C@H](NC(=O)OC(C)(C)C)CC3)C2)C1 [Example 138, tert-butyl ((1r,4r)-4-(2-(6-(5-(4-fluoro-2-(N-methyl-isobutyramido)phenoxy)pyrimidin-4-yl)-2,6-diazaspiro [3.3]heptan-2-yl)ethyl)cyclohexyl)carbamate]
< 100 | 100 to 1000 |  | CC(C)c1ncncc1-c1cc(F)ccc1Oc1cncnc1N1CC2(CC(N3CCc4cc(F)ccc4C3)CO2)C1 (centres unmarked) [Example 139, 2-(5-(4-fluoro-2-(4-isopropylpyrimidin-5-yl)phenoxy)pyrimidin-4-yl)-7-(6-fluoro-3,4-dihydroisoquinolin-2(1H)-yl)-5-oxa-2-azaspiro[3.4]octane]
< 100 | 100 to 1000 |  | CC(C)c1ncncc1-c1cc(F)ccc1Oc1cncnc1N1CC2(CC(NCC3CCC(C)(C#N)CC3)C2)C1 (centres unmarked) [Example 140, 4-(((2-(5-(4-fluoro-2-(4-isopropylpyrimidin-5-yl)phenoxy)pyrimidin-4-yl)-2-azaspiro[3.3]heptan-6-yl)amino)methyl)-1-methylcyclohexane-1-carbonitrile]
< 100 | 100 to 1000 |  | CC(C)c1ncncc1-c1cc(F)ccc1Oc1cncnc1N1CC2(CC(NC(C)c3ccc(C#N)cc3)C2)C1 (centres unmarked) [Example 141, 4-(1-((2-(5-(4-fluoro-2-(4-isopropylpyrimidin-5-yl)phenoxy)pyrimidin-4-yl)-2-azaspiro[3.3]heptan-6-yl)amino)ethyl)benzo-nitrile]
< 100 |  | ≥ 1000 | CC(C)N(C)C(=O)c1cc(F)ccc1Oc1cncnc1N1CCC2(CCN(Cc3ccc(N4CCOC4=O)cc3)C2)C1 (centres unmarked) [Example 142, 5-fluoro-N-isopropyl-N-methyl-2-((4-(7-(4-(2-oxooxazolidin-3-yl)benzyl)-2,7-diazaspiro[4.4]nonan-2-yl)pyrimidin-5-yl)oxy)benzamide]
< 100 | ≥ 1000 |  | CC(=O)N[C@H]1CC[C@H](CCN2CC3(C2)CN(c2ncncc2Oc2ccc(F)cc2-c2ccc(C#N)cc2C2CC2)C3)CC1 [Example 143, N-((1r,4r)-4-(2-(6-(5-((4′-cyano-2′-cyclopropyl-5-fluoro-[1,1′-biphenyl]-2-yl)oxy)pyrimidin-4-yl)-2,6-diazaspiro[3.3]heptan-2-yl)ethyl)cyclohexyl) acetamide]
< 100 | < 100 |  | COC(=O)N(c1cc(F)ccc1Oc1cncnc1N1CCC2(CCN(Cc3ccc4[nH]c(=O)[nH]c4c3)C2)C1)C(C)C (centres unmarked) [Example 144, methyl (5-fluoro-2-((4-(7-((2-oxo-2,3-dihydro-1H-benzo[d]imidazol-5-yl)methyl)-2,7-diazaspiro[4.4]nonan-2-yl)pyrimidin-5-yl)oxy)phenyl)(iso-propyl)carbamate]
< 100 | 100 to 1000 |  | CC(C)N(C)C(=O)c1cc(F)ccc1Oc1cncnc1N1CCC2(CCN(Cc3ccc4cn[nH]c4c3)C2)C1 (centres unmarked) [Example 145, 2-((4-(7-((1H-indazol-6-yl)methyl)-2,7-diazaspiro[4.4]nonan-2-yl)pyrimidin-5-yl)oxy)-5-fluoro-N-isopropyl-N-methylbenzamide]
< 100 | 100 to 1000 |  | CC(C)N(C)C(=O)c1cc(F)ccc1Oc1cncnc1N1CCC2(CCN(Cc3ccc4c(C#N)n[nH]c4c3)C2)C1 (centres unmarked) [Example 146, 2-((4-(7-((3-cyano-1H-indazol-6-yl)methyl)-2,7-diazaspiro[4.4]nonan-2-yl)pyrimidin-5-yl)oxy)-5-fluoro-N-isopropyl-N-methylbenzamide]
< 100 | ≥ 1000 |  | CC(C)(C)OC(=O)N[C@H]1CC[C@H](CN2CCC3(CCN(c4ncncc4Oc4ccc(F)cc4OC4CCCC4)C3)C2)CC1 (some centres unmarked) [Example 147, tert-butyl ((1r,4r)-4-((7-(5-(2-(cyclopentyloxy)-4-fluorophenoxy)pyrimidin-4-yl)-2,7-diazaspiro[4.4]nonan-2-yl)methyl)cyclohexyl) carbamate]
< 100 | < 100 |  | CC(C)c1ncncc1-c1cc(F)ccc1Oc1cncnc1N1CC2(CCN(C(=O)Cc3ccc(C#N)cc3)C2)C1 [Example 149, 4-(2-(2-(5-(4-fluoro-2-(4-isopropylpyrimidin-5-yl)phenoxy)pyrimidin-4-yl)-2,6-diazaspiro[3.4]octan-6-yl)-2-oxoethyl)benzonitrile]
< 100 | < 100 |  | CC(C)c1ncncc1-c1cc(F)ccc1Oc1cncnc1N1CCC2(CCN(Cc3ccc4c(c3)[nH]c(=O)n4C)C2)C1 (centres unmarked) [Example 150, 5-((7-(5-(4-fluoro-2-(4-isopropylpyrimidin-5-yl)phenoxy)pyrimidin-4-yl)-2,7-diazaspiro[4.4]nonan-2-yl)methyl)-1-methyl-1,3-dihydro-2H-benzo[d]imidazol-2-one]
< 100 | ≥ 1000 |  | N#Cc1ccc(-c2cc(F)ccc2Oc2cncnc2N2CC3(CN(CC4CCC(O)CC4)C3)C2)c(C2CC2)c1 (centres unmarked) [Example 151, 2-cyclopropyl-5′-fluoro-2′-((4-(6-((4-hydroxycyclohexyl)methyl)-2,6-diazaspiro[3.3]heptan-2-yl)pyrimidin-5-yl)oxy)-[1,1′-biphenyl]-4-carbonitrile]
< 100 | < 100 |  | CC(C)c1ncncc1-c1cc(F)ccc1Oc1cncnc1N1CC2(CC(NCc3ccc(C#N)cc3)C2)C1 [Example 152, 4-(((2-(5-(4-fluoro-2-(4-isopropylpyrimidin-5-yl)phenoxy)pyrimidin-4-yl)-2-azaspiro[3.3]heptan-6-yl)amino)methyl) benzonitrile]
< 100 | 100 to 1000 |  | CC1CCC(C)N1C(=O)c1cc(F)ccc1Oc1cncnc1N1CCC2(CCN(Cc3ccc4[nH]c(=O)[nH]c4c3)C2)C1 (centres unmarked) [Example 153, 5-((7-(5-(2-(2,5-dimethylpyrrolidine-1-carbonyl)-4-fluorophenoxy)pyrimidin-4-yl)-2,7-diazaspiro[4.4]nonan-2-yl)methyl)-1,3-dihydro-2H-benzo[d]imidazol-2-one]
< 100 | 100 to 1000 |  | O=C(c1cc(F)ccc1Oc1cncnc1N1CCC2(CCN(Cc3ccc4[nH]c(=O)[nH]c4c3)C2)C1)N1CCCC1 (centres unmarked) [Example 154, 5-((7-(5-(4-fluoro-2-(pyrrolidine-1-carbonyl)phenoxy)pyrimidin-4-yl)-2,7-diazaspiro [4.4]nonan-2-yl)methyl)-1,3-dihydro-2H-benzo[d]imidazol-2-one]
< 100 | 100 to 1000 |  | O=C(c1cc(F)ccc1Oc1cncnc1N1CCC2(CCN(Cc3ccc4[nH]c(=O)[nH]c4c3)C2)C1)N1CCOCC1 (centres unmarked) [Example 155, 5-((7-(5-(4-fluoro-2-(morpholine-4-carbonyl)phenoxy)pyrimidin-4-yl)-2,7-diaza-spiro[4.4]nonan-2-yl)methyl)-1,3-dihydro-2H-benzo[d]imidazol-2-one]
< 100 | 100 to 1000 |  | CCN(C(=O)C(C)C)c1cc(F)ccc1Oc1cncnc1N1CC2(CCN(CC3CCOCC3)C2)C1 [Example 156, N-ethyl-N-(5-fluoro-2-((4-(6-((tetrahydro-2H-pyran-4-yl)methyl)-2,6-diazaspiro[3.4]octan-2-yl)pyrimidin-5-yl)oxy)phenyl)iso-butyramide]
< 100 | 100 to 1000 |  | CCN(C(=O)C(C)C)c1cc(F)ccc1Oc1cncnc1N1CC2(CCN(CC3CCCCC3)C2)C1 [Example 158, N-(2-((4-(6-(cyclohexylmethyl)-2,6-diazaspiro[3.4]octan-2-yl)pyrimidin-5-yl)oxy)-5-fluorophenyl)-N-ethylisobutyramide]
< 100 | 100 to 1000 |  | CC(C)c1ncncc1-c1cc(F)ccc1Oc1cncnc1N1CC2(CC(NCc3ccccc3)CO2)C1 (centres unmarked) [Example 159, N-benzyl-2-(5-(4-fluoro-2-(4-isopropylpyrimidin-5-yl)phenoxy)pyrimidin-4-yl)-5-oxa-2-azaspiro[3.4]octan-7-amine]
< 100 | < 100 |  | CC(C)c1ncncc1-c1cc(F)ccc1Oc1cncnc1N1CCC2(CCN(Cc3ccc4[nH]c(=O)[nH]c4c3)C2)C1 (centres unmarked) [Example 160, 5-((7-(5-(4-fluoro-2-(4-isopropylpyrimidin-5-yl)phenoxy)pyrimidin-4-yl)-2,7-diazaspiro[4.4]nonan-2-yl)methyl)-1,3-dihydro-2H-benzo[d]imidazol-2-one]
< 100 | < 100 |  | C=C(C)c1ccccc1-c1cc(F)ccc1Oc1cncnc1N1CCC2(CCN(Cc3ccc4[nH]c(=O)[nH]c4c3)C2)C1 (centres unmarked) [Example 161, 5-((7-(5-((5-fluoro-2′-(prop-1-en-2-yl)-[1,1′-biphenyl]-2-yl)oxy)pyrimidin-4-yl)-2,7-diazaspiro[4.4]nonan-2-yl)methyl)-1,3-dihydro-2H-benzo[d]imidazol-2-one]
